# Test results as given in patent US8044213B2, “Thiazolyl-benzimidazoles” (Hoffmann-La Roche Inc., priority 2008, dated 2011).
# pIC50: −log10 of the molar value.
# Biological target: T1, PLK1 (Homo sapiens, UniProt P53350)
# T1 construct: Full-length, active GST-Plk1 was purified from Sf9 insect cells; GST (N); made in house; host or cells: Sf9 insect cells
# Test: Biochemical Characterization Assay B (peptide substrate, LABCHIP EZ Reader II)
# Details: PLK1, peptide RRRAGALMDASFEEQ-CONH2, % conversion on LABCHIP EZ Reader II
# Experimental: Compounds were serially diluted to 6400, 2133, 711, 237, 79, 26, 8.78, 2.93, 0.98 and 0.33 μM in 100% DMSO. Diluted compound was further diluted 20 fold with Kinase Assay Buffer (KAB). Peptide RRRAGALMDASFEEQ-CONH2 (MW 2090) was diluted to 1.2 μM with KAB and ATP was added to 400 μM. PLK1 stock, prepared as described above, was diluted to 3 μg protein/mL with KAB right before it was added to MATRIX 384-Well Polypropylene Black Plates to start the reaction. 20 μL of KAB diluted compounds (or 5% DMSO in KAB for Total and Blank), 20 μL of KAB diluted peptide with ATP and 40 μL of KAB diluted PLK1 solution (KAB without PLK 1 for Blanks) were transferred to each well of the polypropylene plates. The reaction mixtures were incubated at room temperature for 40 minutes. Reactions were stopped by addition of 10 uL Reaction Stopping Buffer (RSB) to each well. Plates were then read on LABCHIP EZ Reader II from Caliper Life Science.
# (§1) The IC50 values for each compound were generated using an Excel template. The % conversion readings of Total and Blank were used as 0% and 100% inhibition. The percent inhibition values of reactions in the presence of compounds were calculated, and plotted against compound concentrations. All data were fitted into a Dose Response One Site model (4 parameter logistic model) as the following: (A+4B−A)/(1+((x/C)^13)))), with A and B as the bottom and top of the curve (highest and lowest inhibition), respectively, and C as IC50 and D as Hill Coefficient of the compound.
# T1 sequence (P53350 whole entry): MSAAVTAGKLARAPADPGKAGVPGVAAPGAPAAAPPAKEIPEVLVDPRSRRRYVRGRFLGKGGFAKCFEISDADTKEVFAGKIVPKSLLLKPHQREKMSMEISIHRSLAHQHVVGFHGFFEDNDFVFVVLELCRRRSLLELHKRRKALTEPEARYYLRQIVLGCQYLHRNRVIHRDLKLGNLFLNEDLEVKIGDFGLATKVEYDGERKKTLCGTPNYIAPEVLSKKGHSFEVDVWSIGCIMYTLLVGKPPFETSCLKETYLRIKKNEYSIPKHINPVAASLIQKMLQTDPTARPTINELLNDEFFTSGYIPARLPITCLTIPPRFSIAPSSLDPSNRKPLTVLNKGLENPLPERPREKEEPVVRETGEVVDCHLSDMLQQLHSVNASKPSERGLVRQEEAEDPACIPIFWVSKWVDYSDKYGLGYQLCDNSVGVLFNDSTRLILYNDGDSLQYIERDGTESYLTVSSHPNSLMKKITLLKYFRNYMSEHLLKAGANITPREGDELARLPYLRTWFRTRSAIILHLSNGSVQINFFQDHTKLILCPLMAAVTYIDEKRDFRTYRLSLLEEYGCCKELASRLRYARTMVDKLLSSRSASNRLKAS
row,Structure (SMILES),pIC50
1,"COc1cc2ncn(-c3nc(-c4cccc(Cl)c4)c(C(N)=O)s3)c2cc1OCCN1CCN(C)CC1 [Example 44, 4-(3-Chloro-phenyl)-2-{5-methoxy-6-[2-(4-methyl-piperazin-1-yl)-ethoxy]-benzoimidazol-1-yl}-thiazole-5-carboxylic acid amide]",7.21
2,CC(C)(C)OC(=O)NC1CCN(Cc2ccc3ncn(-c4nc(-c5cccc(Cl)c5)c(C(N)=O)s4)c3c2)CC1 [Example 12],6.18
3,"CN(C)CCOc1ccc2ncn(-c3nc(-c4cccc(Cl)c4)c(C(N)=O)s3)c2c1 [Example 29, 4-(3-Chloro-phenyl)-2-[6-(2-dimethylamino-ethoxy)-benzoimidazol-1-yl]-thiazole-5-carboxylic acid amide]",6.45
4,"NC(=O)c1sc(-n2cnc3ccc(OCCCN4CCCCC4)cc32)nc1-c1cccc(Cl)c1 [Example 32, 4-(3-Chloro-phenyl)-2-[6-(3-piperidin-1-yl-propoxy)-benzoimidazol-1-yl]-thiazole-5-carboxylic acid amide]",7.10

# Biological target: T2, GST-Plk1 (Homo sapiens, UniProt P53350)
# T2 construct: Full-length, active GST-Plk1 was purified from Sf9 insect cells; made in house; host or cells: Sf9 insect cells
# Test: Biochemical Characterization Assay A (HTRF, phosphorylation of GST-p53)
# Details: full-length GST-Plk1, GST-p53 substrate, HTRF signal
# Experimental: Full-length, active GST-Plk1 was purified from Sf9 insect cells, and full-length GST-p53 was purified in E. coli. Anti-phospho p53 antibody was purchased from Cell Signaling Technology. Europium-conjugated anti-rabbit antibody was purchased from PerkinElmer Life and Analytical Sciences. APC-conjugated anti-GST antibody was purchased from Prozyme.
# To two microliters of compound (0.6 nM-4 mM) in DMSO or plain DMSO for control wells, 38 microliters of 20 mM HEPES pH 7, 50 mM NaCl, 10 mM MgCl2, 0.5 mM TCEP, 0.1 mM sodium orthovanadate, 0.1 mg/ml BSA, and 0.05% Triton X-100 (Kinase Assay Buffer) were added. Eight microliters of the compound solution were added to a 384-well black microtiter plate, followed by six microliters of GST-p53 (17 ug/ml) and ATP (333 uM) in Kinase Assay Buffer. Six microliters of GST-Plk1 (3 ug/ml) in Kinase Assay Buffer were then added and the solution incubated at 37° C. for 35 minutes. Six microliters of solution containing 43 mM EDTA to stop the reaction and a 1:600 dilution of anti-phospho-p53 antibody in 20 mM HEPES pH 7, 50 mM NaCl, and 0.5 mg/ml BSA (Antibody Binding Buffer) were added and the solution incubated at 37° C. for 30 minutes. Six microliters of solution containing 9 nM europium-conjugated anti-rabbit antibody and 120 nM APC-conjugated anti-GST antibody in Antibody Binding Buffer were then added and the mixture incubated at room temperature for 1.5 hours. The HTRF signal was read on the Envision reader (PerkinElmer Life and Analytical Sciences).
# as §1
# T2 sequence (P53350 whole entry): as above
row,pIC50,Structure (SMILES)
1,6.46,"CN1CCN(Cc2ccc3ncn(-c4nc(-c5ccccc5Cl)c(C(N)=O)s4)c3c2)CC1 [Example 20, 4-(2-Chloro-phenyl)-2-[6-(4-methyl-piperazin-1-ylmethyl)-benzoimidazol-1-yl]-thiazole-5-carboxylic acid amide]"
2,< 4.10,"CN1CCN(Cc2ccc3c(c2)ncn3-c2nc(-c3ccc(Cl)cc3)c(C(N)=O)s2)CC1 [Example 18, 4-(4-Chloro-phenyl)-2-[5-(4-methyl-piperazin-1-ylmethyl)-benzoimidazol-1-yl]thiazole-5-carboxylic acid amide]"
3,7.68,"NC(=O)c1sc(-n2cnc3ccc(OCCCN4CCOCC4)cc32)nc1-c1cccc(Cl)c1 [Example 30, 4-(3-Chloro-phenyl)-2-[6-(3-morpholin-4-yl-propoxy)-benzoimidazol-1-yl]-thiazole-5-carboxylic acid amide]"
4,6.18,"CN1CCN(Cc2ccc3ncn(-c4nc(-c5ccc(C(F)(F)F)cc5)c(C(N)=O)s4)c3c2)CC1 [Example 47, 2-[6-(4-Methyl-piperazin-1-ylmethyl)-benzoimidazol-1-yl]-4-(4-trifluoromethyl-phenyl)-thiazole-5-carboxylic acid amide]"
5,7.49,"CN1CCN(CCCOc2ccc3ncn(-c4nc(-c5cccc(Cl)c5)c(C(N)=O)s4)c3c2)CC1 [Example 33, 4-(3-Chloro-phenyl)-2-{6-[3-(4-methyl-piperazin-1-yl)-propoxy]-benzoimidazol-1-yl}-thiazole-5-carboxylic acid amide]"
6,7.89,"CN1CCN(Cc2ccc3ncn(-c4nc(-c5cccc(Cl)c5)c(C(N)=O)s4)c3c2)CC1 [Example 2, 4-(3-Chloro-phenyl)-2-[6-(4-methyl-piperazin-1-ylmethyl)-benzoimidazol-1-yl]-thiazole-5-carboxylic acid amide]"
7,5.94,"CN1CCN(Cc2ccc3ncn(-c4nc(-c5ccccc5C(F)(F)F)c(C(N)=O)s4)c3c2)CC1 [Example 17, 2-[6-(4-Methyl-piperazin-1-ylmethyl)-benzoimidazol-1-yl]-4-(2-trifluoromethyl-phenyl)-thiazole-5-carboxylic acid amide]"
8,5.46,"NC(=O)c1sc(-n2cnc3ccc(CN4CCCCC4)cc32)nc1-c1cccc(Cl)c1 [Example 8, 4-(3-Chloro-phenyl)-2-(6-piperidin-1-ylmethyl-benzoimidazol-1-yl)-thiazole-5-carboxylic acid amide]"
9,7.23,"CN1CCN(Cc2ccc3ncn(-c4nc(-c5cccc(C(F)(F)F)c5)c(C(N)=O)s4)c3c2)CC1 [Example 48, 2-[6-(4-Methyl-piperazin-1-ylmethyl)-benzoimidazol-1-yl]-4-(3-trifluoromethyl-phenyl)-thiazole-5-carboxylic acid amide]"
10,6.78,"NC(=O)c1sc(-n2cnc3ccc(OCCN4CCOCC4)cc32)nc1-c1cccc(Cl)c1 [Example 26, 4-(3-Chloro-phenyl)-2-[6-(2-morpholin-4-yl-ethoxy)-benzoimidazol-1-yl]-thiazole-5-carboxylic acid amide]"
11,6.35,"CN1CCC(NCc2ccc3ncn(-c4nc(-c5cccc(Cl)c5)c(C(N)=O)s4)c3c2)CC1 [Example 7, 4-(3-Chloro-phenyl)-2-{6-[(1-methyl-piperidin-4-ylamino)-methyl]-benzoimidazol-1-yl}-thiazole-5-carboxylic acid amide]"
12,6.51,"NC(=O)c1sc(-n2cnc3ccc(CN4CCOCC4)cc32)nc1-c1cccc(Cl)c1 [Example 4, 4-(3-Chloro-phenyl)-2-(6-morpholin-4-ylmethyl-benzoimidazol-1-yl)-thiazole-5-carboxylic acid amide]"
13,6.67,"CN1CCN(C(=O)c2ccc3ncn(-c4nc(-c5cccc(Cl)c5)c(C(N)=O)s4)c3c2)CC1 [Example 11, 4-(3-Chloro-phenyl)-2-[6-(4-methyl-piperazine-1-carbonyl)-benzoimidazol-1-yl]-thiazole-5-carboxylic acid amide]"
14,5.69,"CN1CCC(NC(=O)c2ccc3ncn(-c4nc(-c5cccc(Cl)c5)c(C(N)=O)s4)c3c2)CC1 [Example 10, 3-[5-Carbamoyl-4-(3-chloro-phenyl)-thiazol-2-yl]-3H-benzoimidazole-5-carboxylic acid (1-methyl-piperidin-4-yl)-amide]"

# The remaining lines, values behind:
row,Structure (SMILES),pIC50
1,"CN1CCN(Cc2ccc3ncn(-c4nc(-c5ccc(Cl)cc5)c(C(N)=O)s4)c3c2)CC1 [Example 19, 4-(4-Chloro-phenyl)-2-[6-(4-methyl-piperazin-1-ylmethyl)-benzoimidazol-1-yl]-thiazole-5-carboxylic acid amide]",6.30
2,"NC(=O)c1sc(-n2cnc3ccc(CN4CCN(CCO)CC4)cc32)nc1-c1cccc(Cl)c1 [Example 5, 4-(3-Chloro-phenyl)-2-{6-[4-(2-hydroxy-ethyl)-piperazin-1-ylmethyl]-benzoimidazol-1-yl}-thiazole-5-carboxylic acid amide]",7.04
3,"CN(C)CCCOc1ccc2ncn(-c3nc(-c4cccc(Cl)c4)c(C(N)=O)s3)c2c1 [Example 31, 4-(3-Chloro-phenyl)-2-[6-(3-dimethylamino-propoxy)-benzoimidazol-1-yl]-thiazole-5-carboxylic acid amide]",6.79
4,"CN1CCN(Cc2ccc3ncn(-c4nc(-c5ccccc5)c(C(N)=O)s4)c3c2)CC1 [Example 1, 2-[6-(4-Methyl-piperazin-1-ylmethyl)-benzoimidazol-1-yl]-4-phenyl-thiazole-5-carboxylic acid amide]",6.78
5,"NC(=O)c1sc(-n2cnc3ccc(OC4CCNCC4)cc32)nc1-c1cccc(Cl)c1 [Example 21, 4-(3-Chloro-phenyl)-2-[6-(piperidin-4-yloxy)-benzoimidazol-1-yl]-thiazole-5-carboxylic acid amide]",7.10
6,"NC(=O)c1sc(-n2cnc3ccc(OC4CCCCC4)cc32)nc1-c1cccc(Cl)c1 [Example 25, 4-(3-Chloro-phenyl)-2-(6-cyclohexyloxy-benzoimidazol-1-yl)-thiazole-5-carboxylic acid amide]",6.18
7,"CN1CCN(Cc2ccc3c(c2)ncn3-c2nc(-c3cccc(Cl)c3)c(C(N)=O)s2)CC1 [Example 3, 4-(3-Chloro-phenyl)-2-[5-(4-methyl-piperazin-1-ylmethyl)-benzoimidazol-1-yl]-thiazole-5-carboxylic acid amide]",5.96
